Patent US20110105408A1, “THERAPEUTIC PEPTIDES” (INTER-K PTY LIMITED, priority 2008, published 2011)
“Also recorded” adds a separate entry of the source.

What was measured:
HT29 colon cancer cells = assay: Cell proliferation (MTT) assay, HT29 cells; format: cell-based, human
Method: Single cell suspensions of viable trypsinised cells were seeded into 96-well tissue culture plates at a density of 2×10^3 cells per well in a volume of 100 μl of a suitable culture media with foetal calf serum (FCS) (e.g., Dulbecco's Modified Eagles Medium (DMEM), with 10% v/v FCS, glutamine, Hepes, and antibiotics). A set of triplicate wells was prepared for each concentration of the peptide dendrimer being tested. Additional sample wells containing untreated cells or media alone were set up in each treatment plate and processed in parallel as reference controls. A zero-time plate of untreated cells and media-alone wells was simultaneously prepared and an MTT assay carried out on this plate at the time of test peptide dendrimer addition to treatment plates. All plates were cultured for 24 hours before addition of the test dendrimer. To prepare the MTT solution 100 mg of MTT (3-(4,5-dimethylthiazolyl-2)-2,5-diphenyltetrazolium bromide) (Cat #. M-128, Sigma, St Louis Mo.), is mixed with 20 ml of PBS at pH 7.4. The resulting solution is filter sterilized (0.2 μM syringe filter) and stored at 4° C. protected from light until use. MTT substrate is cleaved in growing cells to yield a water insoluble salt. After solubilisation of the salt crystals, a coloured product is produced the measurement of which allows quantitation of the proliferative activity of the cultured cells.
Appropriate concentrations of the test dendrimer were prepared by dilution of freshly prepared sterile 1 mM stock solutions into cell culture media to give a final well volume of 200 μl containing 10% v/v FCS. The zero-plate was processed by addition of MTT at this time. Cell culture was continued for a further 24 or 48 hours before addition of 20 μl of MTT in PBS (5 mg/ml, 0.2 um filter sterilised). The MTT cell proliferation assay measures cell proliferation rate and, in instances where cell viability is compromised, the assay indicates a comparative reduction in cell viability. After a 3 hour incubation in the presence of MTT (5% CO2 in air at 37° C.), plates were centifuged at 450 g for 5 minutes, supernatant removed by gentle suction and precipitated tetrazolium salt resuspended into 150 μl DMSO:glycine (0.1 M glycine, 0.1 M NaCl pH 10.5) (6:1 v/v) solution. Plates were gently vortexed to complete solubilisation of crystalline material and absorbance was read at 540-550 nm using a microplate reader. Sample data were processed to determine the comparative growth of treated samples relative to untreated controls.
HT29 cells were cultured for 48 hours in the presence of selected dendrimers and proliferation of the cells was assessed by MTT assay essentially as described in Example 1.2. The results were calculated as percentage proliferation of control cells (not treated with dendrimer).

[1] = tested on: phospho-ERK in HT29 cells; assay: Phospho-ERK ELISA (FACE ERK1/2 kit) in HT29 cells; format: cell-based, human
Method: HT29 cells were harvested using 0.5% trypsin EDTA (Invitrogen) and 5000 cells were resuspended into 200 μL, and added to each well of a clear NUNC tissue culture treated 96 well plate (NUNC). Cells were seeded in DMEM media (Invitrogen) supplemented with 10% v/v foetal calf serum (FCS, Invitrogen), 1% L-Glutamine (Invitrogen) and 2% 1M HEPES buffer solution (Invitrogen). Cells were then incubated overnight at 37° C. The following day, the growth medium was replaced with 100 μL of serum-free DMEM supplemented with 1% L-glutamine and 2% 1M HEPES buffer solution, and incubated for a further 24 hours at 37° C. Dendrimers were added to test wells in serum free medium to provide final concentrations of the dendrimers ranging from 0.1-20 μLA. The total volume of each well was 200 uL, and cells were incubated at 37° C. for times ranging from 5 minutes to 4 hours. In those studies in which cells were subjected to stimulation by serum, 22 μL FCS (10% v/v final concentration) was added to wells for the final ten minutes of the culture period at 37° C. Serum-free media (SFM) only (22 μL) was added to non-serum stimulated cells.
Phospho-ERK levels were determined using the FACE ERK1/2 ELISA kit according to the manufacturer's instructions (Active Motif, kit obtained from Australian Biosearch, WA, Australia). Briefly, media was replaced and cells fixed with 4% formaldehyde in PBS, and after a 1 hour with antibody blocking buffer (supplied), the primary phospho-ERK or total-ERK antibody was added and incubated overnight at 4° C. Antibody dilution buffer only was added to control test wells containing no primary antibody. The next day, HRP-conjugated secondary antibody was added for one hour before plates were developed and the absorbance measured at 450 nm using a Labsystems Multiskan EX microplate reader (Labsystems, Thermo Labsystems, UK).
The effectiveness of the peptide dendrimer IK248 described in Example 2 in inhibiting growth factor mediated activation of ERK in HT29 cancer cells (i.e., (FCS stimulated) compared to various agents comprising the polypeptide RSKAKNPLYR (SEQ ID No. 6) coupled to different peptide facilitator moieties for facilitating passage of the polypeptide across the plasma cell membrane into the cytosol of the cells was evaluated. Phospho-ERK levels in the cells following treatment with 5 μM IK248 (Dend 8) for 1 hour or polypeptide-facilitator moiety agents (each at 5 μM for the same duration) were measured essentially as described in Example 1.3. The facilitator moieties utilised were the signal peptide fragment AAVALLPAVLLALLA (SEQ ID No. 16), the TAT-G peptide GRKKRRQRRRPPQG (SEQ ID No. 17), a modified pentratin sequence Tr-Pen RRQKWKKG (SEQ ID No. 18), and the penetratin peptide RQIKIWFQNRRMKWKKCS—SC (SEQ ID No. 19) wherein S—S indicates a disulphide bridge between the adjacent cysteine residues.
The peptide RSKAKNPLYR (SEQ ID. No. 6) or peptide dendrimers of the type illustrated in FIG. 3 comprising lysine branching units presenting either 8 (IK248) or 10 (IK248B) monomer units of the peptide RSKAKNPLYR (SEQ ID No. 6) were utilised in this study. Phospho-ERK levels were evaluated by ELISA utilising an Active Motif FACE ERK1/2 ELISA kit (Australian Biosearch, WA, Australia) as described in Example 1.3.

With `CC(C)C[C@H](NC(=O)[C@@H]1CCCN1C(=O)[C@H](CC(N)=O)NC(=O)[C@H](CCCCN)NC(=O)[C@H](C)NC(=O)[C@H](CCCCN)NC(=O)[C@H](CO)NC(=O)[C@@H](N)CCCNC(=N)N)C(=O)N[C@@H](Cc1ccc(O)cc1)C(=O)N[C@@H](CCCNC(=N)N)C(=O)NCCCC[C@H](NC(=O)[C@H](CCCCNC(=O)[C@H](CCCCNC(=O)[C@H](CCCNC(=N)N)NC(=O)[C@H](Cc1ccc(O)cc1)NC(=O)[C@H](CC(C)C)NC(=O)[C@@H]1CCCN1C(=O)[C@H](CC(N)=O)NC(=O)[C@H](CCCCN)NC(=O)[C@H](C)NC(=O)[C@H](CCCCN)NC(=O)[C@H](CO)NC(=O)[C@@H](N)CCCNC(=N)N)NC(=O)[C@H](CCCNC(=N)N)NC(=O)[C@H](Cc1ccc(O)cc1)NC(=O)[C@H](CC(C)C)NC(=O)[C@@H]1CCCN1C(=O)[C@H](CC(N)=O)NC(=O)[C@H](CCCCN)NC(=O)[C@H](C)NC(=O)[C@H](CCCCN)NC(=O)[C@H](CO)NC(=O)[C@@H](N)CCCNC(=N)N)NC(=O)[C@H](CCCCNC(=O)[C@H](CCCNC(=N)N)NC(=O)[C@H](Cc1ccc(O)cc1)NC(=O)[C@H](CC(C)C)NC(=O)[C@@H]1CCCN1C(=O)[C@H](CC(N)=O)NC(=O)[C@H](CCCCN)NC(=O)[C@H](C)NC(=O)[C@H](CCCCN)NC(=O)[C@H](CO)NC(=O)[C@@H](N)CCCNC(=N)N)NC(=O)[C@H](CCCNC(=N)N)NC(=O)[C@H](Cc1ccc(O)cc1)NC(=O)[C@H](CC(C)C)NC(=O)[C@@H]1CCCN1C(=O)[C@H](CC(N)=O)NC(=O)[C@H](CCCCN)NC(=O)[C@H](C)NC(=O)[C@H](CCCCN)NC(=O)[C@H](CO)NC(=O)[C@@H](N)CCCNC(=N)N)C(=O)NCCCC[C@H](NC(=O)[C@H](CCCCNC(=O)[C@H](CCCNC(=N)N)NC(=O)[C@H](Cc1ccc(O)cc1)NC(=O)[C@H](CC(C)C)NC(=O)[C@@H]1CCCN1C(=O)[C@H](CC(N)=O)NC(=O)[C@H](CCCCN)NC(=O)[C@H](C)NC(=O)[C@H](CCCCN)NC(=O)[C@H](CO)NC(=O)[C@@H](N)CCCNC(=N)N)NC(=O)[C@H](CCCCNC(=O)[C@H](CCCCNC(=O)[C@H](CCCNC(=N)N)NC(=O)[C@H](Cc1ccc(O)cc1)NC(=O)[C@H](CC(C)C)NC(=O)[C@@H]1CCCN1C(=O)[C@H](CC(N)=O)NC(=O)[C@H](CCCCN)NC(=O)[C@H](C)NC(=O)[C@H](CCCCN)NC(=O)[C@H](CO)NC(=O)[C@@H](N)CCCNC(=N)N)NC(=O)[C@H](CCCNC(=N)N)NC(=O)[C@H](Cc1ccc(O)cc1)NC(=O)[C@H](CC(C)C)NC(=O)[C@@H]1CCCN1C(=O)[C@H](CC(N)=O)NC(=O)[C@H](CCCCN)NC(=O)[C@H](C)NC(=O)[C@H](CCCCN)NC(=O)[C@H](CO)NC(=O)[C@@H](N)CCCNC(=N)N)NC(=O)[C@H](CCCCNC(=O)[C@H](CCCNC(=N)N)NC(=O)[C@H](Cc1ccc(O)cc1)NC(=O)[C@H](CC(C)C)NC(=O)[C@@H]1CCCN1C(=O)[C@H](CC(N)=O)NC(=O)[C@H](CCCCN)NC(=O)[C@H](C)NC(=O)[C@H](CCCCN)NC(=O)[C@H](CO)NC(=O)[C@@H](N)CCCNC(=N)N)NC(=O)[C@H](CCCNC(=N)N)NC(=O)[C@H](Cc1ccc(O)cc1)NC(=O)[C@H](CC(C)C)NC(=O)[C@@H]1CCCN1C(=O)[C@H](CC(N)=O)NC(=O)[C@H](CCCCN)NC(=O)[C@H](C)NC(=O)[C@H](CCCCN)NC(=O)[C@H](CO)NC(=O)[C@@H](N)CCCNC(=N)N)C(=O)NCCC(N)=O` [IK248B] the “inhibition of proliferation of HT29 cells (MTT)” value (HT29 colon cancer cells; 48 hours culture with dendrimer) was “proliferation of the cells was inhibited; also recorded: more effective than dendrimer IK248”, the “dendrimer concentration required for total kill” value (HT29 colon cancer cells; HT29 cells, 48 hours, MTT) was 10 µM and the “phospho-ERK levels relative to control cells, dose response” value ([1]; HI FCS stimulated HT29 cells) was “decreased relative to control cells with progressively increasing dosages”. For the same compound, the “ERK activity (as indicated by phospho-ERK levels)” value ([1]; HI FCS stimulated HT29 cells, 10 μM (data not shown)) was “entirely inhibited”, the phospho-ERK levels ([1]; HI FCS stimulated HT29 cells, dose of 5 μM) was “almost totally abrogated” and the “phospho-ERK levels in HT29 cells compared to normal skin fibroblast cells (selectivity for cancer cells)” value ([1]; data not shown) was “significantly reduced compared to normal skin fibroblast cells”. For the same compound, the “basal phospho-ERK level relative to control cells” value ([1]; not FCS stimulated, 0.1, 0.5, 1 and 5 μM, 4 hr incubation) was “did not stimulate basal phospho-ERK levels”.
